Columns and labels:
Assay type in all cases: functional
[1] = tested on: Ustilago maydis; assay: Antifungal activity against Ustilago maydis on rice plant at 25 ppm after 24 hr; settings: Mycosarcoma maydis
[2] = tested on: Agrostis stolonifera var. palustris; assay: Herbicidal activity against Agrostis stolonifera var. palustris at 1 ppm after 9 days relative to control
[3] = tested on: Phytophthora infestans; assay: microbe, parasite or virus in culture; settings: in Oryza sativa, 24 h
[4] = tested on: Parastagonospora nodorum; assay: Antifungal activity against Phaeosphaeria nodorum on wheat plant at 25 ppm after 24 hr
[5] = tested on: Lemna minor; assay: Herbicidal activity against Lemna minor (common duckweed) at 1 ppm after 9 days relative to control
[6] = tested on: Parastagonospora nodorum; assay: Antifungal activity against Phaeosphaeria nodorum on wheat plant assessed as disease control at 100 ppm after 24 hr
[7] = tested on: Zymoseptoria tritici; assay: Antifungal activity against Zymoseptoria tritici on wheat plant at 25 ppm after 24 hr
[8] = tested on: Pyricularia oryzae; assay: microbe, parasite or virus in culture; settings: 24 h
[9] = tested on: Puccinia recondita; assay: Antifungal activity against Puccinia recondita on wheat plant assessed as disease control at 100 ppm after 24 hr
[10] = tested on: Rhizoctonia solani; assay: Antifungal activity against Rhizoctonia solani on rice plant at 25 ppm after 24 hr
[11] = tested on: Blumeria graminis f. sp. tritici; assay: Antifungal activity against Blumeria graminis f. sp. tritici on wheat plant assessed as disease control at 100 ppm after 24 hr

Row | Compound | inhibition at 25 ppm [1] | Activity [2] | inhibition at 25 ppm [3] | inhibition at 25 ppm [4] | Activity [5] | Activity [6] | inhibition at 25 ppm [7] | inhibition at 25 ppm [8] | Activity [9] | inhibition at 25 ppm [10] | Activity [11]
1 | COc1ccc2c(c1OC)C[N+]1(C)CCc3cc4c(cc3C1=C2C)OCO4.[Cl-] (configuration not stated) | 40% | 0% | 0% | 0% | 0% | 0% | 0% | 0% | 0% | 0% | 0%
2 | COc1ccc2c(c1OC)CN1CCc3cc4c(cc3[C@@H]1[C@@H]2C)OCO4.Cl | 0% | 0% | 0% | 0% | 0% | 0% | 0% | 0% | 0% | 0% | 0%
3 | COc1ccc2c(c1OC)CN1CCc3cc4c(cc3[C@@H]1[C@H]2O)OCO4.Cl | 0% | 0% | 0% | 0% | 0% | 0% | 0% | 0% | 0% | 0% | 0%
4 | COc1ccc2c(c1OC)C[N@@+]1(C)CCc3cc4c(cc3[C@@H]1[C@@H]2C)OCO4.[Cl-] | 0% | 0% | 0% | 0% | 0% | 0% | 0% | 0% | 0% | 0% | 0%
5 | COc1ccc2c(c1OC)C[N@+]1(C)CCc3cc4c(cc3[C@@H]1[C@H]2O)OCO4.[Cl-] | 0% | 0% | 0% | 0% | 0% | 0% | 0% | 0% | 0% | 0% | 0%
6 | COc1ccc2c(c1OC)C[N@@+]1(C)CCc3cc4c(cc3[C@@H]1[C@H]2O)OCO4.[Cl-] | 0% | 0% | 0% | 0% | 0% | 0% | 0% | 0% | 0% | 0% | 0%
7 | COc1cc2c(cc1OC)-c1c(C)c3ccc(OC)c(OC)c3c[n+]1CC2.[Cl-] | 0% | 0% | 0% | 0% | 65% | 0% | 0% | 0% | 0% | 0% | 0%
8 | CCc1c2[n+](cc3c(OC)c(OC)ccc13)CCc1cc(OC)c(OC)cc1-2.[Cl-] | 0% | 0% | 0% | 0% | 70% | 0% | 0% | 0% | 0% | 0% | 0%
9 | CCCc1c2[n+](cc3c(OC)c(OC)ccc13)CCc1cc(OC)c(OC)cc1-2.[Cl-] | 0% | 0% | 0% | 0% | 65% | 73% | 0% | 0% | 0% | 0% | 0%
10 | CCCCc1c2[n+](cc3c(OC)c(OC)ccc13)CCc1cc(OC)c(OC)cc1-2.[Cl-] | 0% | 0% | 0% | 0% | 65% | 73% | 90% | 0% | 0% | 0% | 0%
11 | CCCCc1c2[n+](cc3c(OC)c(OC)ccc13)CCc1cc3c(cc1-2)OCO3.[Cl-] | 0% | 0% | 0% | 0% | 60% | 67% | 90% | 0% | 0% | 0% | 0%
12 | CCCCCCc1c2[n+](cc3c(OC)c(OC)ccc13)CCc1cc3c(cc1-2)OCO3.[Cl-] | 0% | 0% | 0% | 0% | 60% | 87% | 100% | 0% | 83% | 0% | 0%
13 | CCCc1c2[n+](cc3c(OC)c(OC)ccc13)CCc1cc3c(cc1-2)OCO3.[Cl-] | 0% | 0% | 0% | 0% | 65% | 67% | 90% | 0% | 0% | 0% | 0%
14 | COc1ccc2c(C)c3[n+](cc2c1OC)CCc1cc2c(cc1-3)OCO2.[Cl-] | 0% | 0% | 0% | 0% | 75% | 0% | 80% | 0% | 75% | 0% | 0%
15 | CCc1c2[n+](cc3c(OC)c(OC)ccc13)CCc1cc3c(cc1-2)OCO3.[Cl-] | 0% | 0% | 0% | 0% | 70% | 60% | 90% | 0% | 58% | 0% | 0%
16 | CCOc1c(OC)ccc2c(CC)c3[n+](cc12)CCc1cc2c(cc1-3)OCO2.[Cl-] [9-O-ETHYL-13-ETHYLBERBERRUBINE] | 0% | 0% | 0% | 0% | 70% | 87% | 90% | 0% | 8% | 0% | 0%
17 | CCOc1c(OC)ccc2cc3[n+](cc12)CCc1cc2c(cc1-3)OCO2.[Cl-] [9-O-ETHYLBERBERRUBINE] | 0% | 0% | 0% | 0% | 70% | 0% | 90% | 0% | 75% | 0% | 0%
18 | CCCCCCc1c2[n+](cc3c(OC)c(OC)ccc13)CCc1cc(OC)c(OC)cc1-2.[Cl-] [13-HEXYLPALMATINE] | 0% | 0% | 0% | 0% | 70% | 80% | 100% | 0% | 67% | 0% | 0%
19 | COc1ccc2c(O)c3[n+](cc2c1OC)CCc1cc2c(cc1-3)OCO2.[Cl-] [13-HYDROXYBERBERINE] | 0% | 0% | 40% | 0% | 0% | 0% | 0% | 0% | 67% | 0% | 41%
20 | COc1ccc2cc3[n+](cc2c1OC)CCc1cc2c(cc1-3)OCO2.[Cl-] [BERBERINE CHLORIDE] | 0% | 0% | 0% | 0% | 75% | 0% | 90% | 0% | 0% | 0% | 0%
21 | COc1ccc2cc3[n+](cc2c1O)CCc1cc2c(cc1-3)OCO2 [BERBERRUBINE] | 0% | 0% | 0% | 0% | 0% | 0% | 0% | 0% | 0% | 0% | 0%
22 | COc1cc2c(cc1OC)-c1cc3ccc(OC)c(OC)c3c[n+]1CC2.[Cl-] [PALMATINE CHLORIDE] | 0% | 0% | 0% | 0% | 0% | 0% | 80% | 0% | 0% | 0% | 0%

— ChEMBL document CHEMBL3046565, “Fungicidal and herbicidal activities of berberine related alkaloids” (2000)
